Experimental data as given in US20240368214A1, “POSITIVE NMDA-MODULATING COMPOUNDS AND METHODS OF USE THEREOF” (SAGE THERAPEUTICS, INC., priority 2021, published 2024).
Where two headings read alike, the source gives them in different places.

Molecular target: T1, recombinant human GluN1/GluN2A receptor (Homo sapiens, UniProt Q05586+Q12879)
T1 construct: expressed in transfected cells; host or cells: HEK293, tetracycline-inducible expression
Assay: Whole-cell patch clamp of mammalian cells (Syncropatch 384i), NMDA modulation
Assay type: cell-based
Settings: HEK293 cells, human GluN1/GluN2A, glutamate 1 μM / glycine 100 μM, -80 mV, peak amplitude increase; for EC50: read-out: EC50
Description: Whole-Cell Patch Clamp of Mammalian Cells (Syncropatch 384i (Nanion Technologies))
Whole-cell patch clamp electrophysiology was used to investigate the effects of compounds on GluN1/GluN2A N-methyl-D-aspartate (NMDA) glutamate receptors expressed in mammalian cells.
Human embryonic kidney (HEK293) cells expressing the recombinant human GluN1/GluN2A receptor under the control of a tetracycline-inducible expression system were used. Cells were maintained in Dulbecco's Modified Eagle's Medium (DMEM) with 1% glutamine, 10% Tetracycline System Approved fetal bovine serum (FBS), and NMDA inhibitors. Cells were cultured in a humidified 5% CO2 incubator at 37° C. Cells were induced with 50 ng/ml tetracycline 18-24 hours prior to testing. A cocktail of channel blockers was added to the media to prevent cell death.
Cells were 60-80% confluent at the time of harvest. Cells were detached from the flask TrypLE Enzyme Express (Thermo Fisher) at 37° C., and then cold extracellular solution was added to the flask, followed by incubation at 4° C. and then trituration of the cells. The cell solution was then placed on a shaker on the Syncropatch platform at 10° C. with a shake speed of a minimum 200 rpm for at least 30 minutes prior to testing.
Extracellular (EC) solution (in mM) —140 NaCl, 4 KCl, 5 CaCl2, 10 HEPES, 5 Glucose, pH 7.4 with NaOH. All external solutions contained 0.2% DMSO and 0.01% Kolliphor® EL (C5135, Sigma) throughout the experiment.
Intracellular (IC) solution (in mM) —120 CsF, 10 mM EGTA, 10 NaCl, 10 HEPES, 4 NaATP, 2 MgCl2, pH 7.2 with CsOH.
First, the DMSO Master Plate was prepared, in which the DMSO stock of each test compound was serially diluted in 100% DMSO to 1000× the final assay concentration. Immediately prior to assay testing, the compounds were diluted 1:100 by transferring solutions from the DMSO Mast Plate to the Intermediate Plate pre-filled with EC solution using a Biomek FX automated liquid handling system. Compounds were then diluted further with extracellular solution into two pre-incubation plates—1) compound from the Intermediate Plate was mixed with EC solution at a 1:5 dilution to create a 2× Compound Pre-Incubation Plate which was diluted a further 1:2 when added to the Syncropatch for the initial compound pre-incubation. And 2) compound from the Intermediate plate was mixed with EC solution at a 1:10 Dilution to create the 1× Compound Pre-Incubation Plate, which was used for subsequent compound pre-incubations. Finally, a Compound+Agonist Plate was prepared by mixing compound from the 2× Compound Pre-Incubation Plate with 2× concentration of co-agonists in a 1:1 ratio.
Each experiment sequentially included cell catching, sealing, whole-cell formation, liquid application, recording and data acquisition. Whole-cell patch clamp recordings were performed using multi-hole high resistance chips on the SyncroPatch 384i (Nanion Technologies). A steady-state voltage pulse at -80 mV was applied throughout the assay and a 10 second recording window was triggered around 1 second prior to application of co-agonists. Currents were leak corrected and sampled at 5 kHz.
A fast application was used, in which 5 μl co-agonist was rapidly applied at a speed of 30 μl/s and then rapidly removed from the well. To test for modulator activity, the co-agonists glutamate (1 μM) and glycine (100 μM) were applied three times to show activation reproducibility, followed by 120 seconds pre-incubation of test compound alone. The test compound was then re-applied in the presence of co-agonists two times. This was followed by application of the agonist alone, although test compound may not be fully washed from the well prior to this step. Finally, a saturating concentration of co-agonists (glutamate 100 μM/glycine 100 μM) was applied.
The voltage protocol generation data collection and analysis were performed on PatchControll384 and DataControll384. […]

T1 sequence (Q12879 23-1464, other chains not shown): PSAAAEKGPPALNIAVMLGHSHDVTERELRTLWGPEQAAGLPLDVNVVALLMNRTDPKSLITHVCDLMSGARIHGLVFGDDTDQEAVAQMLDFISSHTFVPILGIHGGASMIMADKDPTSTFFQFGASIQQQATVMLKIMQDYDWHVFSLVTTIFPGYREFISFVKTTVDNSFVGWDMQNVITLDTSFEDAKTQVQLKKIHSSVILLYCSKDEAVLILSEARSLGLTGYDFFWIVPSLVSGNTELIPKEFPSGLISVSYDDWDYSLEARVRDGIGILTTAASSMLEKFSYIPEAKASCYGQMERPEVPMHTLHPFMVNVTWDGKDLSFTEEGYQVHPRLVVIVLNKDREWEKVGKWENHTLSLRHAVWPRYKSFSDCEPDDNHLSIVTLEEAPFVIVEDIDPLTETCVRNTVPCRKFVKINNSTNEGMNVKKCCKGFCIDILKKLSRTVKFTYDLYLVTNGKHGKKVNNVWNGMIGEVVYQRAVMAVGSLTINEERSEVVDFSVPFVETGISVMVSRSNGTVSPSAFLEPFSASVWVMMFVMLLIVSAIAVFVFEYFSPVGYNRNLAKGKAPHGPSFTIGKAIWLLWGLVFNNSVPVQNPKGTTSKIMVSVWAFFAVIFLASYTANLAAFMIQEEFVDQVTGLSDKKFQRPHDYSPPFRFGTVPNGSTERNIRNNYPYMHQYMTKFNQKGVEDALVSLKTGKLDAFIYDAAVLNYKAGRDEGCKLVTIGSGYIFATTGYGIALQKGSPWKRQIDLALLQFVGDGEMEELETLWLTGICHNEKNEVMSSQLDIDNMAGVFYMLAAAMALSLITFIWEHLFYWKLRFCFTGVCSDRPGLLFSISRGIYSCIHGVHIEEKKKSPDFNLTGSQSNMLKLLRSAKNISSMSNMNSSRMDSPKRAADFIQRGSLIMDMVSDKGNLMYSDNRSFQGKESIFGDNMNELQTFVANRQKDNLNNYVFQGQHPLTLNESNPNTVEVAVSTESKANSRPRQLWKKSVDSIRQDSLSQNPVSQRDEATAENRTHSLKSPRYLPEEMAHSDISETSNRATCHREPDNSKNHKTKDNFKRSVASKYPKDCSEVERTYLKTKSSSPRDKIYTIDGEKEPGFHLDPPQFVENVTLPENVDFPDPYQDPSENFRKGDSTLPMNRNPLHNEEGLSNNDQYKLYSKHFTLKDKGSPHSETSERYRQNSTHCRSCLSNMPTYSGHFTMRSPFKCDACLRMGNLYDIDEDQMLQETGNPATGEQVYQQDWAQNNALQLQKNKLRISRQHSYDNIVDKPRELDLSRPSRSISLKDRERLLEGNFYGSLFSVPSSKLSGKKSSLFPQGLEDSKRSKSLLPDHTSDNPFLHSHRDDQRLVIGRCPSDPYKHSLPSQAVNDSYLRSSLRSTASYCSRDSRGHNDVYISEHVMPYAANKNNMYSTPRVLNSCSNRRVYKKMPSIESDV

Compound `CC[C@]1(O)CC[C@]2(C)C3=CC[C@]4(C)[C@@H]([C@H](C)CC[C@@H](O)C(C)(C)C#N)CC[C@H]4[C@@H]3CC[C@H]2C1` [Compound C-28, (3R,6R)-6-((3S,5S,8S,10S,13R,14S,17R)-3-ethyl-3-hydroxy-10,13-dimethyl-2,3,4,5,6,7,8,10,12,13,14,15,16,17-tetradecahydro-1H-cyclopenta[a]phenanthren-17-yl)-3-hydroxy-2,2-dimethylheptanenitrile] has an EC50 (Table C-2) of 1 to 100 nM and an EC50 (Table E-2) of 1 to 100 nM.

In the case of `CC[C@]1(O)CC[C@@]2(C)[C@@H](CC[C@@H]3[C@@H]2CC[C@]2(C)[C@@H]([C@@H](CC[C@@](C)(O)C(F)(F)F)OC)CC[C@@H]32)C1` [Compound A-23, (3S,5S,8R,9S,10S,13S,14S,17S)-3-ethyl-10,13-dimethyl-17-((1R,4R)-5,5,5-trifluoro-4-hydroxy-1-methoxy-4-methylpentyl) hexadecahydro-1H-cyclopenta[a]phenanthren-3-ol], the EC50 (Table A-2) is reported as 500 to 1000 nM.

For `CC[C@]1(O)CC[C@@]2(C)[C@@H](CC[C@H]3[C@@H]4[C@@H]5C[C@@H]5[C@H]([C@H](C)CCCC(C)(C)O)[C@@]4(C)CC[C@@H]32)C1` [Compound B-1, (2S,4aS,4bS,6aR,7S,7aS,8aR,8bS,8cR,10aS)-2-ethyl-7-((R)-6-hydroxy-6-methylheptan-2-yl)-4a,6a-dimethyloctadecahydrocyclopropa[4,5]cyclopenta[1,2-a]phenanthren-2-ol], the Emax (Table B-2) was > 200% and the EC50 (Table B-2) was 1 to 100 nM.

`CCC(O)(CC)CC[C@@H](C)[C@H]1CC[C@H]2[C@@H]3CC[C@H]4C[C@@](C)(O)CC[C@]4(C)C3=CC[C@]12C` [Compound E-16, (3S,5S,8S,10S,13R,14S,17R)-17-((R)-5-ethyl-5-hydroxyheptan-2-yl)-3,10,13-trimethyl-2,3,4,5,6,7,8,10,12,13,14,15,16,17-tetradecahydro-1H-cyclopenta[a]phenanthren-3-ol] was tested, and the EC50 (Table E-2) was 500 to 1000 nM.

`CC[C@]1(O)CC[C@@]2(C)[C@@H](CC[C@@H]3[C@@H]2CC[C@]2(C)[C@@H]([C@H](C)CC[C@H](O)C(C)C)[C@H](C)C[C@@H]32)C1` [Compound B-23, (3S,5S,8R,9S,10S,13S,14S,16R,17S)-3-ethyl-17-((2R,5S)-5-hydroxy-6-methylheptan-2-yl)-10,13,16-trimethylhexadecahydro-1H-cyclopenta[a]phenanthren-3-ol] was tested, and the Emax (Table B-2) was > 200% and the EC50 (Table B-2) was 1 to 100 nM.

For `CC[C@]1(O)CC[C@@]2(C)[C@@H](CC[C@@H]3[C@@H]2CC[C@]2(C)[C@@H]([C@@H](C#N)CCCC(C)(C)O)CC[C@@H]32)C1` [Compound A-9a], the Emax (Table A-2) was < 100% and the EC50 (Table A-2) was 1 to 100 nM.

For `CC[C@]1(O)CC[C@@]2(C)[C@@H](CC[C@H]3[C@@H]4[C@@H]5C[C@@H]5[C@H]([C@H](C)CC[C@@](C)(O)C(F)(F)F)[C@@]4(C)CC[C@@H]32)C1` [Compound B-2, (2S,4aS,4bS,6aR,7S,7aS,8aR,8bS,8cR,10aS)-2-ethyl-4a,6a-dimethyl-7-((2R,5R)-6,6,6-trifluoro-5-hydroxy-5-methylhexan-2-yl)octadecahydrocyclopropa[4,5]cyclopenta[1,2-a]phenanthren-2-ol], the Emax (Table B-2) was > 200% and the EC50 (Table B-2) was 100 to 500 nM.

For `CC[C@]1(O)CC[C@@]2(C)C(=CC[C@H]3[C@@H]4CCC[C@H]([C@H](C)CC[C@@H](O)C(C)C)[C@@]4(C)CC[C@@H]32)C1` [Compound H-6, (2S,4aR,4bS,6aR,7R,10aS,10bS)-2-ethyl-7-((2R,5R)-5-hydroxy-6-methylheptan-2-yl)-4a,6a-dimethyl-1,2,3,4,4a,4b,5,6,6a,7,8,9,10,10a,10b,11-hexadecahydrochrysen-2-ol], the Emax (Table H-2) was < 100% and the EC50 (Table H-2) was 1 to 100 nM.

For `CC(C)[C@H](O)CC[C@@H](C)[C@H]1CCC[C@H]2[C@@H]3CC=C4C[C@@](C)(O)CC[C@]4(C)[C@H]3CC[C@]12C` [Compound H-8, (2S,4aR,4bS,6aR,7R,10aS,10bS)-7-((2R,5R)-5-hydroxy-6-methylheptan-2-yl)-2,4a,6a-trimethyl-1,2,3,4,4a,4b,5,6,6a, 7,8,9,10,10a,10b,11-hexadecahydrochrysen-2-ol], the Emax (Table H-2) was < 100% and the EC50 (Table H-2) was 100 to 500 nM.

In the case of `CC[C@]1(O)CC[C@@]2(C)[C@@H](CC[C@H]3[C@@H]4CC[C@H]([C@H](C)CC[C@H](O)C(C)C)[C@H]4CC[C@@H]32)C1` [Compound F-8, (3S,5S,8S,9S,10S,13R,14R,17R)-3-ethyl-17-((2R,5S)-5-hydroxy-6-methylheptan-2-yl)-10-methylhexadecahydro-1H-cyclopenta[a]phenanthren-3-ol], the EC50 (Table F-2) is reported as 100 to 500 nM.

Compound `C[C@H](CC[C@](C)(O)C(F)(F)F)[C@H]1CC[C@H]2[C@@H]3CC[C@H]4C[C@@](C)(O)CC[C@]4(C)C3=CC[C@]12C` [Compound E-13, (3S,5S,8S,10S,13R,14S,17R)-3,10,13-trimethyl-17-((2R,5S)-6,6,6-trifluoro-5-hydroxy-5-methylhexan-2-yl)-2,3,4,5,6,7,8,10,12,13,14,15,16,17-tetradecahydro-1H-cyclopenta[a]phenanthren-3-ol] has an EC50 (Table E-2) of 1 to 100 nM.

For `C[C@H](CC[C@](C)(O)C(F)(F)F)[C@H]1CC[C@H]2[C@@H]3CC=C4C[C@](C)(O)CCC[C@]4(C)[C@H]3CC[C@]12C` [Compound D-14, (1R,3aS,3bS,7R,10aR,10bS,12aR)-7,10a,12a-trimethyl-1-((2R,5S)-6,6,6-trifluoro-5-hydroxy-5-methylhexan-2-yl)-1,2,3,3a,3b,4,6,7,8,9,10,10a, 10b, 11,12,12a-hexadecahydrocyclohepta[a]cyclopenta[f]naphthalen-7-ol], the EC50 (Table D-2) was > 1000 nM.

In the case of `CC[C@]1(O)CC[C@@]2(C)[C@@H](CC[C@@H]3[C@@H]2CC[C@]2(C)[C@@H]([C@H](F)CC[C@H](O)C(C)C)CC[C@@H]32)C1` [Compound A-4, (3S,5S,8R,9S,10S,13S,14S,17S)-3-ethyl-17-((1R,4S)-1-fluoro-4-hydroxy-5-methylhexyl)-10,13-dimethylhexadecahydro-1H-cyclopenta[a]phenanthren-3-ol], the Emax (Table A-2) is reported as > 200% and the EC50 (Table A-2) is reported as 1 to 100 nM.

Work on `CC[C@]1(O)CC[C@@]2(C)[C@@H](CC[C@H]3[C@@H]4CC[C@H]([C@H](C)CC[C@@H](O)C(C)C)[C@H]4CC[C@@H]32)C1` [Compound F-9, (3S,5S,8S,9S,10S,13R,14R,17R)-3-ethyl-17-((2R,5R)-5-hydroxy-6-methylheptan-2-yl)-10-methylhexadecahydro-1H-cyclopenta[a]phenanthren-3-ol] yielded an EC50 (Table F-2) of 100 to 500 nM.
